Data taken from ChEMBL document CHEMBL4376825, “Dual Inhibitors of Human DNA Topoisomerase II and Other Cancer-Related Targets” (J Med Chem, 2020).
Residues, ends and D or L forms follow the SMILES beside them. *: point of attachment. Cbz = O=C(OCc1ccccc1)*

Assays:
[1] = Cytotoxicity against […] cells after 4 hrs by MTT assay; type: functional, cell-based
[2] = Selectivity ratio of IC50 for […] cells to IC50 for human RPMI8226/S cells; type: functional
[3] = Cytotoxicity against human RPMI8226/S cells after 4 hrs by MTT assay; type: functional, cell-based
[4] = tested on: HeLa; assay: Antiproliferative activity against human HeLa cells after 72 hrs by sulforhodamine B assay; type: functional, cell-based
[5] = tested on: Bel-7402; assay: Antiproliferative activity against human Bel7402 cells after 72 hrs by sulforhodamine B assay; type: functional, cell-based; details: Bel-7402, 72 h
[6] = Half life in human; type: ADME
[7] = tested on: P388; assay: Antitumor activity against mouse P388 cells implanted in ip dosed B6D2F1 mouse assessed as T/C value administered for 4 days; type: functional
[8] = tested on: DLD-1; assay: Antiproliferative activity against human DLD1 cells after 72 hrs by sulforhodamine B assay; type: functional, cell-based; details: DLD-1, 72 h
[9] = tested on: U-87 MG; assay: Antiproliferative activity against human U87 cells after 72 hrs by sulforhodamine B assay; type: functional, cell-based, U-87MG ATCC
[10] = tested on: Proteasome; assay: Inhibition of proteasome in human K562 cells assessed as half life of etoposide-induced Topoisomerase 2alpha-DNA complexes at 50 uM incubated for 2 hrs followed by etoposide washout and measured up to 120 mins by TARDIS assay (reference value: 0.5 hrs); type: subcellular
[11] = tested on: Proteasome; assay: Inhibition of proteasome in human K562 cells assessed as half life of mitoxantrone-induced Topoisomerase 2alpha-DNA complexes by measuring half life of complex at 50 uM incubated for 2 hrs followed by mitoxantrone washout and measured up to […] by TARDIS assay (reference value: 10 hrs); type: subcellular

SMILES	IC50 [1] [nM]	Ratio IC50 [2]	IC50 [3] [nM]	T/C [7] [%]	also measured
N[C@H]1CCN(c2c(F)cc3c(=O)c(C(=O)O)cn4c3c2Oc2c-4ccc3c2ccc2ccccc23)C1	2800	4	690	–	–
COc1ccc(O)c(C(=O)c2cnc3[nH]c4ccccc4c3c2)c1	–	–	–	–	IC50 [4]: 60 nM; IC50 [5]: 830 nM
CC[C@@]1(O)C(=O)OCc2c1cc1n(c2=O)Cc2cc3ccccc3nc2-1 [CAMPTOTHECIN]	–	–	–	–	half-life [6]: 1.18 to 1.5 h
Cc1cnc(NCCCN(C)C)c2c1[nH]c1ccc3ccccc3c12	–	–	–	150	–
Cc1cnc(NCCCN(C)C)c2c1[nH]c1ccc3cc(O)ccc3c12 [INTOPLICINE]	–	–	–	270	–
COc1cccc2c1C(=O)c1c(O)c3c(c(O)c1C2=O)C[C@@](O)(C(=O)CO)C[C@@H]3O[C@H]1C[C@H](N)[C@H](O)[C@H](C)O1 [DOXORUBICIN]	320	8.7	37	–	half-life [6]: 0.0667 h
CCCCC(C#CC(=O)OC)O/C=C/C(=O)OC (stereo not given)	–	–	–	–	IC50 [8]: 850 nM; IC50 [9]: 4900 nM
CC(C)C[C@@H](C=O)NC(=O)[C@H](CC(C)C)NC(=O)[C@H](CC(C)C)NC(=O)OCc1ccccc1 (Cbz-Leu-Leu-Leu-aldehyde)	–	–	–	–	T1/2 [10]: > 2 h; T1/2 [11]: > 24 h
N[C@@H]1CCN(c2c(F)cc3c(=O)c(C(=O)O)cn4c3c2Oc2c-4ccc3c2ccc2ccccc23)C1	500	1.6	320	–	–
COc1ccc2c(ccc3c2c2c(NCCCN(C)C)ncc(C)c2n3C)c1	–	–	–	150	–
